In ChEMBL document CHEMBL4043066, “Drug Discovery Targeting Bromodomain-Containing Protein 4” (J Med Chem, 2017):

Experiments:
[1] = Metabolic stability in CD1 mouse liver microsomes assessed as compound remaining at 1 uM after 30 mins in presence of NADPH by LC/MS analysis; type: ADME, microsome; conditions: read-out: Stability
[2] = Metabolic stability in human liver microsomes assessed as compound remaining at 1 uM after 30 mins in presence of NADPH by LC/MS analysis; type: ADME, microsome; conditions: read-out: Stability
MX1 [3] = assay: Antiproliferative activity against human MX1 cells incubated for >= 72 hrs by CellTiter-Glo assay; type: functional, cell-based; conditions: MX1, 72 h
MX1 [4] = assay: Antitumor activity against human MX1 cells xenografted subcutaneously in SCID mouse assessed as tumor growth inhibition at 100 mg/kg, po after day 17 relative to control; type: functional; conditions: MX1, 408 h, read-out: TGI
MV4-11 [5] = assay: Antitumor activity against human MV4-11 cells harboring MLL-AF4 xenografted in mouse assessed as tumor growth inhibition at 1 mg/kg, po qd up to 28 days relative to control; type: functional; conditions: MV4-11, po, 672 h, read-out: TGI
[6] = target: T1, Bromodomain-containing protein 4 (Homo sapiens, UniProt O60885)
Description: Displacement of Halo-tagged histone H3.3 from NanoLuc-tagged full length BRD4 (unknown origin) expressed in HCT116 cells after 18 hrs by NanoBRET assay

[7] = target: T1, Bromodomain-containing protein 4; remark: listed apart in the source
Description: Displacement of Halo-tagged histone H3.3 from N-terminal NanoLuc-tagged BRD4 bromodomain 1 (44 to 168 residues) (unknown origin) expressed in HCT116 cells after 18 hrs by NanoBRET assay

[8] = target: T1, Bromodomain-containing protein 4; assay: Inhibition of recombinant human N-terminal His6-tagged BRD4 bromodomain 1 expressed in Escherichia coli BL21(DE3) using biotinylated histone peptide as substrate after 60 mins by TR-FRET assay
NCI-H187 = assay: Antitumor activity against human NCI-H187 cells xenografted subcutaneously in mouse assessed as tumor growth inhibition at 5 mg/kg, po relative to control; type: functional; conditions: read-out: TGI
MV4-11 [9] = assay: Antiproliferative activity against human MV4-11 cells; type: functional, cell-based
[10] = target: T1, Bromodomain-containing protein 4; assay: Inhibition of His-tagged BRD4 bromodomain 1 (K57 to E168 residues) (unknown origin) after 1 hr by TR-FRET assay
[11] = target: T1, Bromodomain-containing protein 4; assay: Inhibition of His-tagged BRD4 bromodomain 2 (E352 to E168 residues) (unknown origin) after 1 hr by TR-FRET assay
[12] = target: T1, Bromodomain-containing protein 4; assay: Inhibition of His-epitope tagged BRD4 bromodomain 1 (44 to 168 residues) (unknown origin) using biotinylated histone H4 as substrate after 1 hr by AlphaScreen assay
[13] = target: T1, Bromodomain-containing protein 4; assay: Inhibition of His-epitope tagged BRD4 bromodomain 2 (333 to 460 residues) (unknown origin) using biotinylated histone H4 as substrate after 1 hr by AlphaScreen assay
[14] = target: T1, Bromodomain-containing protein 4; assay: Inhibition of His-tagged BRD4 (44 to 477 residues) (unknown origin) using acetyl-histone H4 as substrate after 35 mins by TR-FRET assay
MV4-11 [15] = assay: Growth inhibition of human MV4-11 cells after 4 days by CellTiter-Glo assay; type: functional; conditions: MV4-11, 96 h
MX1 [16] = assay: Antiproliferative activity against human MX1 cells after 72 hrs by CellTiter-Glo assay; type: functional, cell-based; conditions: MX1, 72 h
[17] = target: T1, Bromodomain-containing protein 4; assay: Inhibition of GST-tagged BRD4 (unknown origin) using biotinylated acetyl-histone H4 peptide as substrate after 30 mins by AlphaScreen assay
[18] = target: T1, Bromodomain-containing protein 4; assay: Inhibition of His-tagged BRD4 (unknown origin) using acetyl-histone H4 as substrate after 35 mins by TR-FRET assay
CREB-binding protein = CREB-binding protein (Homo sapiens, UniProt Q92793); assay: Inhibition of His-tagged CREBP (unknown origin) using acetyl-histone H4 as substrate after 35 mins by AlphaScreen assay
MV4-11 [19] = assay: Antiproliferative activity against human MV4-11 cells after 4 days by CellTiter-Glo assay; type: functional, cell-based; conditions: MV4-11, 96 h
[20] = target: T1, Bromodomain-containing protein 4; assay: Inhibition of GST-tagged BRD4 bromodomain 1 (44 to 168 residues) (unknown origin) using biotinylated acetyl-histone H4 peptide as substrate after 30 mins in dark by AlphaScreen assay
[21] = target: T1, Bromodomain-containing protein 4; assay: Inhibition of biotin-labeled acetylated peptide binding to BRD4 bromodomain 1 (unknown origin) expressed in Escherichia coli BL21 after 1 hr by BROMOscan assay
MV4-11 [22] = assay: Antiproliferative activity against human MV4-11 cells after 72 hrs by alamarBlue assay; type: functional, cell-based; conditions: MV4-11, 72 h
[23] = target: T1, Bromodomain-containing protein 4; assay: Inhibition of BRD4 bromodomain 1 (unknown origin) using biotinylated substrate after 1 hr by AlphaLisa assay
[24] = target: Bromodomain-containing protein 4 (Homo sapiens, UniProt O60885, Y390A); assay: Inhibition of recombinant human N-terminal His6-tagged BRD4 bromodomain 2 (1 to 477 residues) Y390A mutant after 30 mins in dark by TR-FRET assay
[25] = tested on: Bromodomain-containing protein 4 (Homo sapiens), O60885 [UNDEFINED MUTATION]; assay: Selectivity ratio of IC50 for recombinant human N-terminal His6-tagged BRD4 bromodomain 1 (1 to 477 residues) Y97A mutant to IC50 for recombinant human N-terminal His6-tagged BRD4 bromodomain 2 (1 to 477 residues) Y390A mutant

CREB-binding protein, sequence (Q92793 whole entry): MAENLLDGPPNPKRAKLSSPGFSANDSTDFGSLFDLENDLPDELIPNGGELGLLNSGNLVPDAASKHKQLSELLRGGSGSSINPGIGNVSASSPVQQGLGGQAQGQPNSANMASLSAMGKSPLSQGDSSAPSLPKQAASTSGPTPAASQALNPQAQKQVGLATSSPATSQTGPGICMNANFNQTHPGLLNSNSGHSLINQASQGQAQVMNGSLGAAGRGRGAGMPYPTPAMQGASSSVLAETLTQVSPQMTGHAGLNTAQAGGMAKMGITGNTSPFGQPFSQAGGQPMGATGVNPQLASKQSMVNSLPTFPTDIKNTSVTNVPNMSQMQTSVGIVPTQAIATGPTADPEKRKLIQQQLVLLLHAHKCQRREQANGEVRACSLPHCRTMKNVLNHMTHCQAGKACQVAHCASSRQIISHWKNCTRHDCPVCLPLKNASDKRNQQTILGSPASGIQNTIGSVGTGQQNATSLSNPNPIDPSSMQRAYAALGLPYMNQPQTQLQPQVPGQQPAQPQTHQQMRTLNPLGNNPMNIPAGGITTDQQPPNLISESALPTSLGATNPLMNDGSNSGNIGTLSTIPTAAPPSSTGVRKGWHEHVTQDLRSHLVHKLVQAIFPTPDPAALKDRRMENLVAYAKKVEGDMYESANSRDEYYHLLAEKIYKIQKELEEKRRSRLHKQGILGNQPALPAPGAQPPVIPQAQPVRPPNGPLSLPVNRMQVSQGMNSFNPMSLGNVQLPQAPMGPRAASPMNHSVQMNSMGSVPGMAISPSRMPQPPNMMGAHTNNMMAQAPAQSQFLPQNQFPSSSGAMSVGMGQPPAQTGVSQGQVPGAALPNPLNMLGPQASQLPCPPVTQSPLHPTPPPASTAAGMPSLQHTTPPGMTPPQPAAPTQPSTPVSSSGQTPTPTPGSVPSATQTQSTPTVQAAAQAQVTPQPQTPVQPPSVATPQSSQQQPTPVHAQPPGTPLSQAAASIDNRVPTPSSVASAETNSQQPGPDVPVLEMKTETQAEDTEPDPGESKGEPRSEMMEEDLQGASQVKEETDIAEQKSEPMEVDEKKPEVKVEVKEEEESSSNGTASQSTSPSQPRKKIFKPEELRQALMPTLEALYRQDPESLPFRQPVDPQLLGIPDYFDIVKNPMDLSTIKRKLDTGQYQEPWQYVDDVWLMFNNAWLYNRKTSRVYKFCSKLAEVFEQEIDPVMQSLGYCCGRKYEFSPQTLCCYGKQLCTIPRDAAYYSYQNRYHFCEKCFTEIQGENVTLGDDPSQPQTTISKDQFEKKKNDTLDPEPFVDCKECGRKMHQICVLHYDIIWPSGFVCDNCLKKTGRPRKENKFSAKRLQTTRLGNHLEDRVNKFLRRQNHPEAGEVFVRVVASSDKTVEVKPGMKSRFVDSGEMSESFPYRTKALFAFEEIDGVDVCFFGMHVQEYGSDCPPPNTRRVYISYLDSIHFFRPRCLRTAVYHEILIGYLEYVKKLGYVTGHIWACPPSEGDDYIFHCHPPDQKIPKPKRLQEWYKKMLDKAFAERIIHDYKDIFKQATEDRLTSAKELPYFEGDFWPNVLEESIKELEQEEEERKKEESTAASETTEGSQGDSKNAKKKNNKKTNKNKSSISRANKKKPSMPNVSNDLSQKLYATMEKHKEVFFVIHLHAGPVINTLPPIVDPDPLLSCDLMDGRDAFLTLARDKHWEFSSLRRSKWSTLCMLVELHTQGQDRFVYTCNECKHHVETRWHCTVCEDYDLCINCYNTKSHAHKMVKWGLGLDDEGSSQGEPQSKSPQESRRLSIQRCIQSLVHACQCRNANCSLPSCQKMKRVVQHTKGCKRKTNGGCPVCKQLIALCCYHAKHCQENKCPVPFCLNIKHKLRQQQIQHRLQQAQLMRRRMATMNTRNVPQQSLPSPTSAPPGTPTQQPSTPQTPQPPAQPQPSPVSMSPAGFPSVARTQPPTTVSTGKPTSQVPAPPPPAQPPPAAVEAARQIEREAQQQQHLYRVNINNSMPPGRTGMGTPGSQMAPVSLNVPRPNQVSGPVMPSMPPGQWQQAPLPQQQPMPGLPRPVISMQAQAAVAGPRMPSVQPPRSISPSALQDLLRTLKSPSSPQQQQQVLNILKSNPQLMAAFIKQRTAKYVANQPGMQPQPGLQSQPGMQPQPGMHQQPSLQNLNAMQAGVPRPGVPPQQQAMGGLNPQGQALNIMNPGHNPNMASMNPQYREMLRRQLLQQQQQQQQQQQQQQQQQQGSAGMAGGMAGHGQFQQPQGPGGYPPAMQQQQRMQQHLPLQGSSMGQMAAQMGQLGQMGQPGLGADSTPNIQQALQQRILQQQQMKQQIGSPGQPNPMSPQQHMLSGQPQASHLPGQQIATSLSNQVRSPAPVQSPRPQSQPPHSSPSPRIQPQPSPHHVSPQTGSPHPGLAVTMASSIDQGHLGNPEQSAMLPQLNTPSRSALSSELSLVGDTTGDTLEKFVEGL

## COc1cc2c(cc1-c1c(C)noc1C)ncc1nc(C3CCOCC3)n([C@H](C)COC(F)F)c12
[1]
  remaining at 0.5 h, 1 µM: 56%
[2]
  remaining at 0.5 h, 1 µM: 43%

## COc1cc2c(cc1-c1c(C)noc1C)ncc1nc(C3CCC(F)(F)CC3)n([C@H](C)COC(F)F)c12
[1]
  remaining at 0.5 h, 1 µM: 35%
[2]
  remaining at 0.5 h, 1 µM: 62%

## CCS(=O)(=O)Nc1cc(-c2cn(C)c(=O)c3[nH]ccc23)c(Oc2ccc(F)cc2F)cc1CN1CCOCC1
MX1 [3]
  EC50: 16 nM

## Cc1[nH]c(-c2cc(NS(C)(=O)=O)ccc2Oc2ccccc2)c2c1C(=O)CCC2
MX1 [4]
  inhibition in vivo at 100 mg/kg: 80%

## COc1nnc2ccc(N3CCC(c4ccc(OCCN5CCN(C)C(=O)[C@H]5C)cc4)CC3)nn12 [AZD-5153]
MV4-11 [5]
  inhibition in vivo at 1 mg/kg: 72%
[6]
  IC50: 5 nM
[7]
  IC50: 1600 nM

## Cc1nnn(C)c1-c1cnc2c3ccc(C(C)(C)O)c(F)c3n([C@H](c3ccccc3)C3CCOCC3)c2c1
[8]
  IC50: < 5 nM
NCI-H187
  inhibition in vivo at 5 mg/kg: 100%

## Cc1sc2c(c1C)C(c1ccc(Cl)cc1)=N[C@@H](CC(=O)OC(C)(C)C)c1nnc(C)n1-2
MV4-11 [9]
  IC50: 72 nM

## Cn1cc(-c2cc(S(C)(=O)=O)ccc2N[C@H]2CC[C@H](NCc3ccc4ccccc4c3)CC2)c2cc[nH]c2c1=O
[10]
  Ki: 1.1 nM
[11]
  Ki: 2.2 nM
MX1 [3]
  EC50: 10 nM

## CC(=O)N1c2ccc(-c3cnn(C4CC4)c3)cc2C(OC[C@H]2CC2(F)F)C[C@H]1C (stereo not given in full)
[12]
  IC50: < 100 nM
[13]
  IC50: < 50 nM

## COc1ncccc1-c1c(C2CC2)c2c(n1C)C(c1ccc(Cl)cc1)N(c1cc(C)c3nnc(C)n3c1)C2=O (stereo not given)
[14]
  IC50: < 11 nM
MV4-11 [15]
  GI50: 3 nM

## CCOc1cc(=O)n(C)cc1-c1cc(N(CC2CC2)S(=O)(=O)CC)ccc1Oc1ccc(F)cc1F
MX1 [16]
  EC50: 233 nM

## Cc1noc(C)c1-c1ccc2c(c1)C(c1ccccc1)N1CCCOC21 (stereo not given)
[17]
  IC50: 36 nM

## Cc1cc(N2C(=O)c3c(c(CO)nn3C3CC3)[C@H]2c2ccc(Cl)cc2)cn2c(C)nnc12
[18]
  IC50: < 11 nM
CREB-binding protein
  IC50: 1400 nM
MV4-11 [19]
  IC50: 9.4 nM

## Cc1nnc2c(NC(C)C)nc(-c3nc4cnc(N5CCOC[C@H]5C)cc4n3C(C)CC3CC3)cn12 (stereo not given in full)
[20]
  IC50: 9 nM

## Cc1sc2c(c1C)C(c1ccc(Cl)cc1)=N[C@H](CC(=O)OC1CCC(O)CC1)c1nnc(C)n1-2 (stereo not given in full)
[21]
  Kd: 1.3 nM

## Cc1noc(C)c1-c1ccc2c(c1)C(c1ccccc1)N(CC1CCN(C)CC1)C(=O)N2 (stereo not given)
[17]
  IC50: 31 nM

## Cc1noc(C)c1-c1ccc2c(c1)[C@H](c1ccccc1)N(C)C2=O
[17]
  IC50: 14 nM

## COc1ccc(S(=O)(=O)Nc2cccc(Oc3ccc(S(C)(=O)=O)cc3-c3cn(C)c(=O)c4[nH]ccc34)c2)cc1
MX1 [3]
  EC50: 97 nM

## Cc1nn(C2CC2)c2c1[C@@H](c1ccc(Cl)cc1)N(c1cc(C)c3nnc(C)n3n1)C2=O
[18]
  IC50: < 11 nM
CREB-binding protein
  IC50: 3700 nM
MV4-11 [19]
  IC50: 3.4 nM

## CCOC(=O)CC1N=C(c2ccc(Cl)cc2)c2cc(OC)ccc2-c2cn(C)c(=O)cc21 (stereo not given)
MV4-11 [22]
  EC50: 2 nM
[23]
  IC50: 3 nM

## CCNC(=O)CC1N=C(c2c(F)cccc2F)c2cc(OC)ccc2-c2cn(C)c(=O)cc21 (stereo not given)
MV4-11 [22]
  EC50: 13 nM
[23]
  IC50: < 0.5 nM

## Cc1noc(C)c1-c1ccc2c(c1)C(c1ccsc1)(N1CCC[C@H](N)C1)C(=O)N2 (stereo not given in full)
MV4-11 [9]
  IC50: 34 nM

## CCn1nc(C)c2c1C(=O)N(c1cc(C)c(=O)n(C)c1)C2c1ccc(Cl)cc1F (stereo not given)
MV4-11 [19]
  IC50: 7.7 nM

## CC(=O)N1c2ccc(C#N)cc2[C@H](Nc2ncccc2F)[C@@H](C)[C@@H]1C1CC1
[24]
  IC50: < 100 nM
[25]
  Ratio IC50: 100
